The text below walks through data of PubChem BioAssay (NCI).

Test systems include A549 NSCLC; HT29 colon; ACHN renal; SF-539 CNS; MDA-MB-231 breast; BT-549 breast; EKVX NSCLC; MOLT-4 leukemia; M14 melanoma; SK-MEL-5 melanoma; HS 578T breast; TK-10 renal; MCF7 breast; NCI-H522 lung.
Assay in all cases: growth of human tumour cells (NCI), 48 h

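In this assay, cells in 96-well plates receive the compound at five concentrations for 48 hours. Endpoints are linearly interpolated between the surrounding concentrations. TGI is the concentration that stops growth completely.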

For the compound `CC(=O)O[C@H]1[C@@H](OC2CCCC2(c2ccccc2)c2ccccc2)O[N+]([O-])=C[C@@]12COCc1cc3c(cc12)OCO3` (stereo not given in full), the TGI in the test with A549 NSCLC was > 45.4 µM; with HT29 colon, 9.11 µM; in the test with ACHN renal, > 43.6 µM; in the test with SF-539 CNS it was > 100 µM; in the test with MDA-MB-231 breast, > 43.2 µM; in the test with BT-549 breast, > 86.2 µM. The TGI is > 25.7 µM in the test with EKVX NSCLC; > 22.9 µM with MOLT-4 leukemia; 37.2 µM in the test on M14 melanoma; 16.8 µM with SK-MEL-5 melanoma; > 100 µM in the test on HS 578T breast; > 24.7 µM in the test on TK-10 renal. For the same compound, the figures for the TGI in the test with MCF7 breast and with NCI-H522 lung were > 45.2 µM and 5.35 µM, respectively.

Turning to `CC(=O)O[C@H]1CC[C@H]2[C@@H]3CCC4=C(C(=O)C=CC4(C)OC(C)=O)[C@H]3CC[C@]12C` (stereo not given in full), the TGI with A549 NSCLC, with HT29 colon, in the test on ACHN renal, in the test with SF-539 CNS, with MDA-MB-231 breast and in the test with BT-549 breast was > 100 µM each time. Besides, the TGI with EKVX NSCLC, in the test with MOLT-4 leukemia, in the test with M14 melanoma, with SK-MEL-5 melanoma, with HS 578T breast and with TK-10 renal was > 100 µM each time. For the same compound, the TGI is 73.1 µM in the test with MCF7 breast and > 100 µM in the test on NCI-H522 lung.

Consider `CC(=O)O[C@H]1[C@H](OC(C)=O)[C@@H](CN=[N+]=[N-])OCO[C@@H]1CN=[N+]=[N-]`, for which the TGI in the test on A549 NSCLC, in the test with HT29 colon, in the test on ACHN renal, in the test on SF-539 CNS, in the test on MDA-MB-231 breast and in the test on BT-549 breast was > 100 µM in each case. Also, the TGI in the test with EKVX NSCLC, with MOLT-4 leukemia, in the test with M14 melanoma, with SK-MEL-5 melanoma, in the test on HS 578T breast and in the test on TK-10 renal was > 100 µM in each case. In addition, the TGI in the test on MCF7 breast and in the test with NCI-H522 lung was > 100 µM in each case.

`Cc1nn(-c2ccccc2)c2c1C(c1cc3ccccc3nc1Cl)NC(=S)N2` (stereo not given): the TGI in the test on A549 NSCLC is > 100 µM; in the test on HT29 colon it was > 100 µM; in the test on ACHN renal it was > 100 µM; in the test on SF-539 CNS, 67.2 µM; in the test with MDA-MB-231 breast it was > 100 µM; with BT-549 breast it was > 100 µM. In addition, the TGI with EKVX NSCLC, in the test on MOLT-4 leukemia, in the test with M14 melanoma, in the test with SK-MEL-5 melanoma, with HS 578T breast and in the test with TK-10 renal was > 100 µM each time. Moreover, the TGI in the test with MCF7 breast is > 100 µM; with NCI-H522 lung it was 69.5 µM.

`Cc1cc(N(CCC#N)CCC#N)ccc1/C(N=Nc1ccccc1)=N\NC(=O)c1ccccc1`: the TGI with A549 NSCLC is > 100 µM; in the test on HT29 colon, 35.5 µM; in the test on ACHN renal, 41.3 µM; in the test on SF-539 CNS it was 54.1 µM; in the test with MDA-MB-231 breast, > 100 µM; with BT-549 breast, 77.4 µM. Also, the TGI is > 100 µM in the test on EKVX NSCLC; 64.5 µM in the test with MOLT-4 leukemia; > 100 µM in the test on M14 melanoma; > 100 µM in the test on SK-MEL-5 melanoma; 75.8 µM with HS 578T breast; 41 µM in the test on TK-10 renal. Also, the results for the TGI in the test on MCF7 breast and in the test on NCI-H522 lung were > 100 µM and 35.3 µM, respectively.

With `c1ccc(/N=N\Nc2ccc(-c3nc4ccccc4o3)cc2)nc1`, the TGI in the test on A549 NSCLC, in the test with HT29 colon, in the test with ACHN renal, in the test on SF-539 CNS, in the test on MDA-MB-231 breast and in the test with BT-549 breast was > 100 µM in each case. Also, the TGI with EKVX NSCLC was 88.2 µM; in the test with MOLT-4 leukemia it was 61.1 µM; in the test with M14 melanoma, > 100 µM; in the test with SK-MEL-5 melanoma, 30.3 µM; in the test with HS 578T breast, > 100 µM; in the test on TK-10 renal, > 100 µM. Besides, the TGI in the test on MCF7 breast and in the test on NCI-H522 lung was > 100 µM throughout.

In the case of `O=C1c2ccccc2C(=O)c2c1oc(=O)c1ccccc21`, the TGI with A549 NSCLC was > 25 µM; with HT29 colon it was 13 µM; in the test with ACHN renal, 11.1 µM; with SF-539 CNS, > 25 µM; in the test with MDA-MB-231 breast, 13.8 µM; in the test on BT-549 breast, 9.2 µM. The TGI with EKVX NSCLC was 14.3 µM; in the test with MOLT-4 leukemia, 12.5 µM; in the test with M14 melanoma, 16.1 µM; with SK-MEL-5 melanoma, 4.51 µM; in the test with HS 578T breast, 23.2 µM; with TK-10 renal it was 18.9 µM. Further, the TGI was determined as 13.6 µM in the test on MCF7 breast and 9.73 µM in the test on NCI-H522 lung.

Turning to `O=C1C=CC[C@H](/C=C/C[C@@H](O)C[C@H](O)/C=C/c2ccccc2)O1`, the TGI was determined as 33.5 µM with A549 NSCLC; 23.5 µM in the test with HT29 colon; 27.8 µM in the test on ACHN renal; 21.5 µM in the test on SF-539 CNS; 22.2 µM with MDA-MB-231 breast; 23.6 µM with BT-549 breast. The TGI with EKVX NSCLC amounted to 25.2 µM; in the test with MOLT-4 leukemia it was 39.6 µM; in the test on M14 melanoma it was 27.4 µM; in the test with SK-MEL-5 melanoma it was 27.4 µM; with HS 578T breast, 60.2 µM; with TK-10 renal it was 24 µM. In addition, the figures for the TGI with MCF7 breast and with NCI-H522 lung were 24.8 µM and 18 µM, respectively.

On to `COCC(=O)OC1CCn2c1nc1c2C(=O)C(C)=C(NC(C)=O)C1=N` (stereo not given), for which the TGI is 42.5 µM in the test on A549 NSCLC; > 47.4 µM in the test on HT29 colon; 19.9 µM in the test on ACHN renal; 3.87 µM with SF-539 CNS; 8.82 µM in the test on MDA-MB-231 breast; 3.76 µM in the test with BT-549 breast. Further, the TGI in the test with EKVX NSCLC came out at 25.3 µM; in the test with MOLT-4 leukemia it was 5.2 µM; in the test with M14 melanoma, 15 µM; in the test with SK-MEL-5 melanoma, 5.92 µM; in the test with HS 578T breast it was 18.8 µM; with TK-10 renal it was 32 µM. Also, the TGI was 3.52 µM with MCF7 breast and 21.5 µM with NCI-H522 lung.

As for `CC(=O)Nc1ccc(S(=O)(=O)[N-]C2C(=O)c3ccccc3C(=O)C2[n+]2ccccc2)cc1` (stereo not given), the TGI in the test with A549 NSCLC was 39.7 µM; with HT29 colon, > 100 µM; with ACHN renal it was 30.7 µM; in the test on SF-539 CNS, 33.3 µM; with MDA-MB-231 breast it was > 100 µM; in the test on BT-549 breast it was 13.4 µM. For the same compound, the TGI in the test with EKVX NSCLC is > 100 µM; in the test on MOLT-4 leukemia it was 47.2 µM; in the test with M14 melanoma it was 27.4 µM; with SK-MEL-5 melanoma, 15.3 µM; in the test with HS 578T breast it was 62.4 µM; in the test on TK-10 renal, > 100 µM. Also, the TGI with MCF7 breast is 31.8 µM; with NCI-H522 lung, 92.7 µM.
